In patent publication US20080031903A1, “METHOD OF TREATING OCULAR INFECTIONS” (priority 2006, published 2008):
Where “and” joins values, the source holds several entries; their conditions need not be identical. Equal values may be shown once. Entries after “also recorded” stand apart in the source; their conditions may differ.

Columns and labels:
Assay type in all cases: in vivo
Ad5 [1] = experiment: Ad5/NZW rabbit ocular model, combined analysis of Examples 3 and 5; conditions: n=20 eyes per group, FIG. 12
Ad5 McEwen = experiment: Ad5/NZW rabbit ocular model, Example 3 (Ad-R1)
Method: The purpose of this study is to determine the antiviral efficacy of a 100 mg/ml solution of human Intra Venous Immune Globulin (IG) in the Ad5/NZW rabbit ocular model.
Fifteen NZW female rabbits 2-3 lbs were received from Myrtle's Rabbitry, Thompson Station, Tenn. Fifteen rabbits were inoculated in both eyes following general anesthesia with ketamine & xylazine, topical anesthesia with proparacaine, and corneal scarification (12 cross-hatched strokes of a #25 needle) with 50 μl of 3.0×10^7 pfu/ml (1.5×10^6 pfu/eye or 1.5×10^8 vp/eye) of Ad5 McEwen (Stock P3, Feb. 25, 05, 5.3×10^8 pfu/ml). Eyes were closed and gently rubbed for 5 seconds to ensure contact of the virus on all ocular surfaces.
Eyes were cultured for virus after at least 3 hours (Day 0) after infection. Following topical anesthesia with proparacaine, a single cotton-tipped swab was placed into the lower fornix of each eye, rolled over the cornea into the upper fornix to recover adenovirus from the tear film and corneal and conjunctival surfaces. The swabs from each eye were placed individually into tubes containing 1 ml of outgrowth media and were frozen at −70° C. pending plaque assay. On Day 1, rabbits were divided into 3 treatment groups of 5 rabbits each. Two masked solutions were received. One solution contained 100 mg/ml of IG (Gammagard S/D) and one solution contained pharmaceutical grade saline for use as the negative control. The positive antiviral control, 0.5% cidofovir was not masked because of the differences in treatment regimen. The solutions were stored at 4° C. until and during use.
Drops were administered with at least a 1 hour interval between drops. All eyes from all groups were cultured for virus on days 1, 3, 4, 5, 7, 9, 11, and 14 at least one hour after the final doses of the treatments described above. At various times during the course of the experiment, Ad5 titers were determined on A549 cell monolayers using a standard plaque assay. The ocular cultures to be titered were thawed, diluted (1:10) and inoculated onto A549 monolayers. The virus was adsorbed for 3 hours. Following adsorption, 1 ml of media plus 0.5% methylcellulose was added to each well, and the plates were incubated at 37° C. in a 5% CO2-water vapor atmosphere. After 7 days incubation, the cells were stained with 0.5% gentian violet, and the number of plaques were counted under a dissecting microscope (25×). The viral titers were then calculated, and expressed as plaque-forming units per milliliter (pfu/ml).
Analysis of Results: Data were analyzed statistically using True Epistat and/or Minitab statistical software. Outcome measures included: Ad5-Positive Cultures per Total (Overall [Days 1-14]; Early Phase of Infection [Days 1-5]; Late Phase of Infection [Days 7-14]), Daily Viral Titers, Mean Viral Titer (Early Phase of Infection [Days 1-5]; Late Phase of Infection [Days 7-14]), and Duration of Shedding. Significance was established at the p≦0.05 confidence level.
Duration of viral shedding is shown in Table 8 and was statistically analyzed. The duration of viral shedding in IG treated animals was 5.4 days (standard deviation of 0.84 days). In the Cidofovir treated animals, the duration of viral shedding was 5.0 (SD=1.25 days) while it was longer in the normal saline treated group: 7.2 days (SD=1.14 days). The significant finding is represented graphically in FIG. 8. In this analysis, IG was similar to Cidofovir in reducing the duration of viral shedding.

Ad5 [2] = experiment: Ad5/NZW rabbit ocular model, combined analysis of Examples 3 and 5
Excerpt: The following summarizes the in vivo studies provided in Examples 3 and 5. Data from the two studies were combined, analyzed by Minitab statistical software using Analysis of Variance (ANOVA), and X^2 analyses. Significance was established at the p<0.05 confidence.
The daily reduction in percent Ad5 positive cultures per total for all treatment groups is presented graphically in FIG. 4.
The mean combined Ad5 ocular titers represent a global measure of adenovirus replication during the early and late phases of infection. These were determined by calculating the mean and standard deviation of all ocular cultures from each treatment group during the early and late phases (n=80 for all groups).
The mean duration of shedding was estimated by determining the last day on which adenovirus positive cultures were obtained and calculating the mean and standard deviation.

[3] = Days 1-5, Early Phase of Infection
[4] = Days 7-14, Late Phase of Infection

`Nc1ccn(C[C@@H](CO)OCP(=O)(O)O)c(=O)n1` [0.5% Cidofovir, Cidofovir] was tested, and the “Daily Ad5 positive cultures per total, comparison (words)” value (Ad5 [1]) was “significantly fewer Ad5 positive cultures per total compared with the Saline control on Days 7 and 9”, the “Daily Ad5 positive cultures per total, comparison (words)” value (Ad5 [1]; listed as cidofovir) was “significant decreases in the number of Ad5 positive cultures per total on Days 7 and 9 compared with the saline treated eyes” and the “Daily Ad5 ocular titer, Median” value (Ad5 McEwen; D0) was 2350 pfu/ml. The “Daily Ad5 ocular titer, TrMean” value (Ad5 McEwen; D0) was 2988 pfu/ml, the “Daily Ad5 ocular titer, Mean” value (Ad5 McEwen; D0, N 10 eyes) was 3214 pfu/ml and the “Ad5 ocular viral titer, individual eye” value (Ad5 McEwen; D 0, after infection, before treatment) was 2450 pfu/ml and 1950 pfu/ml and 4250 pfu/ml and 1100 pfu/ml and 2250 pfu/ml and 6650 pfu/ml and 7200 pfu/ml and 3100 pfu/ml and 2150 pfu/ml and 1040 pfu/ml. The “Ad5 ocular viral titer, individual eye” value (Ad5 McEwen; D 1) was 450 pfu/ml (2×) and 475 pfu/ml and 1000 pfu/ml and 5 pfu/ml and 550 pfu/ml (2×) and 1550 pfu/ml and 1800 pfu/ml and 330 pfu/ml, the “Daily Ad5 ocular titer, Mean” value (Ad5 McEwen; D 1) was 716 pfu/ml and the “Daily Ad5 ocular titer, Median” value (Ad5 McEwen; D 1) was 512 pfu/ml. The “Daily Ad5 ocular titer, TrMean” value (Ad5 McEwen; D 1) was 669 pfu/ml, the “Ad5 ocular viral titer, individual eye” value (Ad5 McEwen; D 3) was 4250 pfu/ml and 3800 pfu/ml and 2700 pfu/ml and 130 pfu/ml and 9350 pfu/ml and 8200 pfu/ml and 9300 pfu/ml and 100 pfu/ml and 350 pfu/ml and 210 pfu/ml and the “Daily Ad5 ocular titer, Mean” value (Ad5 McEwen; D 3) was 3839 pfu/ml. For the same compound, the “Daily Ad5 ocular titer, Median” value (Ad5 McEwen; D 3) was 3250 pfu/ml, the “Daily Ad5 ocular titer, TrMean” value (Ad5 McEwen; D 3) was 3617 pfu/ml and the “Ad5 ocular viral titer, individual eye” value (Ad5 McEwen; D 4) was 650 pfu/ml and 400 pfu/ml and 6700 pfu/ml and 1150 pfu/ml and 4700 pfu/ml and 2350 pfu/ml and 1800 pfu/ml and 25 pfu/ml and 0 pfu/ml and 80 pfu/ml. The “Daily Ad5 ocular titer, Mean” value (Ad5 McEwen; D 4) was 1785 pfu/ml, the “Daily Ad5 ocular titer, Median” value (Ad5 McEwen; D 4) was 900 pfu/ml and the “Daily Ad5 ocular titer, TrMean” value (Ad5 McEwen; D 4) was 1394 pfu/ml. For the same compound, the “Ad5 ocular viral titer, individual eye” value (Ad5 McEwen; D 5) was 550 pfu/ml and 10 pfu/ml and 1550 pfu/ml and 0 pfu/ml (3×) and 400 pfu/ml and 1400 pfu/ml and 1100 pfu/ml and 5 pfu/ml, the “Daily Ad5 ocular titer, Mean” value (Ad5 McEwen; D 5) was 501 pfu/ml and the “Daily Ad5 ocular titer, Median” value (Ad5 McEwen; D 5) was 205 pfu/ml. For the same compound, the “Daily Ad5 ocular titer, TrMean” value (Ad5 McEwen; D 5) was 433 pfu/ml, the “Ad5 ocular viral titer, individual eye” value (Ad5 McEwen; D 7) was 0 pfu/ml (8×) and 5 pfu/ml and 15 pfu/ml and the “Daily Ad5 ocular titer, Mean” value (Ad5 McEwen; D 7) was 2.00 pfu/ml. The “Daily Ad5 ocular titer, Median” value (Ad5 McEwen; D 7) was 0.00 pfu/ml, the “Daily Ad5 ocular titer, TrMean” value (Ad5 McEwen; D 7) was 0.62 pfu/ml and the “Ad5 ocular viral titer, individual eye” value (Ad5 McEwen; D 9) was 0 pfu/ml. For the same compound, the “Daily Ad5 ocular titer, Mean” value (Ad5 McEwen; D 9) was 0.00000 pfu/ml, the “Daily Ad5 ocular titer, Median” value (Ad5 McEwen; D 9) was 0.00000 pfu/ml and the “Daily Ad5 ocular titer, TrMean” value (Ad5 McEwen; D 9) was 0.00000 pfu/ml. The “Ad5 ocular viral titer, individual eye” value (Ad5 McEwen; D 11) was 0 pfu/ml, the “Daily Ad5 ocular titer, Mean” value (Ad5 McEwen; D 11) was 0.00000 pfu/ml and the “Daily Ad5 ocular titer, Median” value (Ad5 McEwen; D 11) was 0.00000 pfu/ml. The “Daily Ad5 ocular titer, TrMean” value (Ad5 McEwen; D 11) was 0.00000 pfu/ml, the “Ad5 ocular viral titer, individual eye” value (Ad5 McEwen; D 14) was 0 pfu/ml and the “Daily Ad5 ocular titer, Mean” value (Ad5 McEwen; D 14) was 0.00000 pfu/ml. For the same compound, the “Daily Ad5 ocular titer, Median” value (Ad5 McEwen; D 14) was 0.00000 pfu/ml, the “Daily Ad5 ocular titer, TrMean” value (Ad5 McEwen; D 14) was 0.00000 pfu/ml and the “Positive Cultures per Total” value (Ad5 McEwen; Day 0, before treatment) was 10/10. For the same compound, the “Positive Cultures per Total, percent” value (Ad5 McEwen; Day 0, before treatment) was 100%, the “Positive Cultures per Total” value (Ad5 McEwen; Day 1) was 10/10 and the “Positive Cultures per Total, percent” value (Ad5 McEwen; Day 1) was 100%. The “Positive Cultures per Total” value (Ad5 McEwen; Day 3) was 10/10, the “Positive Cultures per Total, percent” value (Ad5 McEwen; Day 3) was 100% and the “Positive Cultures per Total” value (Ad5 McEwen; Day 4) was 9/10. For the same compound, the “Positive Cultures per Total, percent” value (Ad5 McEwen; Day 4) was 90%, the “Positive Cultures per Total” value (Ad5 McEwen; Day 5) was 7/10 and the “Positive Cultures per Total, percent” value (Ad5 McEwen; Day 5) was 70%. For the same compound, the “Positive Cultures per Total” value (Ad5 McEwen; Day 7) was 2/10, the “Positive Cultures per Total, percent” value (Ad5 McEwen; Day 7) was 20% and the “Positive Cultures per Total” value (Ad5 McEwen; Day 9) was 0/10. For the same compound, the “Positive Cultures per Total, percent” value (Ad5 McEwen; Day 9) was 0%, the “Positive Cultures per Total” value (Ad5 McEwen; Day 11) was 0/10 and the “Positive Cultures per Total, percent” value (Ad5 McEwen; Day 11) was 0%. For the same compound, the “Positive Cultures per Total” value (Ad5 McEwen; Day 14) was 0/10, the “Positive Cultures per Total, percent” value (Ad5 McEwen; Day 14) was 0% and the “Positive Cultures per Total, Total” value (Ad5 McEwen; [3]) was 36/40. The “Positive Cultures per Total, Total (%)” value (Ad5 McEwen; [3]) was 90%, the “Positive Cultures per Total, Total” value (Ad5 McEwen; Days 1-14) was 38/80 and the “Positive Cultures per Total, Total (%)” value (Ad5 McEwen; Days 1-14) was 47.5%. The “Positive Cultures per Total, Total (%)” value (Ad5 McEwen; Days 1-14, listed as Cidofovir) was 47.5%, the “Positive Cultures per Total, Total” value (Ad5 McEwen; [4]) was 2/40 and the “Positive Cultures per Total, Total (%)” value (Ad5 McEwen; [4]) was 5%. The “Positive Cultures per Total, Total (%)” value (Ad5 McEwen; Days 7-14, Late Phase of Infection, listed as Cidofovir) was 5%, the “Mean Combined Ocular Titers Days 7-14, comparison” value (Ad5 McEwen; Late Phase) was “significantly lower Mean Combined Ocular Titers Days 7-14 compared with NPR” and the “Positive Cultures per Total Days 7-14, comparison” value (Ad5 McEwen; Late Phase) was “significantly fewer Positive Cultures per Total Days 7-14 compared with NPR”. The “Antiviral efficacy, conclusion” value (Ad5 McEwen; compared to Saline control) was “demonstrated its proven antiviral efficacy”, the “Mean Daily Ocular Titers, statistical comparison” value (Ad5 McEwen; days as stated) was “significantly lower titers on Days 1 and 7 compared with NPR” and the “Duration of Shedding, individual eye” value (Ad5 McEwen; final day with positive Ad5 culture, listed as CDV) was 5 days (5×) and 4 days (2×) and 7 days (2×) and 3 days. For the same compound, the “Duration of viral shedding, group mean” value (Ad5 McEwen; mean of 10 eyes) was 5.0 days, the “Mean Duration of Shedding, comparison” value (Ad5 McEwen; rabbit, in vivo) was “significantly shorter durations of shedding compared with the NPR” and the “Adenoviral Positive Culture/total, Early Phase” value (Ad5 [2]; Days 1-5) was 72/80. The “Adenoviral Positive Culture/total, Early Phase, percent” value (Ad5 [2]; Days 1-5) was 90.0%, the “Mean Combined Ad5 titer, Early Phase, Mean ± Sd” value (Ad5 [2]; Days 1-5, n = 80) was 1.4 ± 2.1 × 10^3 pfu/ml and the “Adenoviral Positive Culture/total, Overall” value (Ad5 [2]; Days 1-14) was 78/160. For the same compound, the “Adenoviral Positive Culture/total, Overall, percent” value (Ad5 [2]; Days 1-14) was 48.75%, the “Adenoviral Positive Culture/total, Late Phase” value (Ad5 [2]; Days 7-14) was 6/80 and the “Adenoviral Positive Culture/total, Late Phase, percent” value (Ad5 [2]; Days 7-14) was 7.5%. The “Mean Combined Ad5 titer, Late Phase, Mean ± Sd” value (Ad5 [2]; Days 7-14, n = 80) was 0.8 ± 0.4 × 10^0 pfu/ml, the “Duration of Ad5 Shedding, Mean ± Sd” value (Ad5 [2]; n = 20) was 5.3 ± 1.3 days and the “Antiviral activity, overall comparison” value (Ad5 [2]; rabbit, in vivo) was “equivalent antiviral inhibitory activity”. For the same compound, the “Duration of shedding, comparison” value (Ad5 [2]; rabbit, in vivo) was “significantly decreased the duration of shedding compared with the saline control; also recorded: significantly decreased the Mean Duration of shedding compared with IG”.
